Reference: patent US20230190728A1, “NEW THERAPEUTIC USES OF COMPOUNDS” (PROXIMAGEN, LLC, priority 2020, published 2023)

Tested on: male C57BI/6 mice
Assay: LPS-Induced Pulmonary Inflammation Study
Type: in vivo
Conditions: for average lavage TNFα: lavage supernatant, ELISA
Method: This study was to test the efficacy of orally administered compounds as disclosed herein to reduce LPS-induced inflammatory cell infiltration of the lungs, and was carried out in male C57BI/6 mice.
Day 11: Groups 1 and 2 were administered 10% HP-β-CD. Group 3: 7.59 mg dexamethasone 21-phosphate disodium salt (Sigma, Cat. D1159, lot 88H1020, SF 1.316) was dissolved in […] HP-β-CD to prepare a 0.2 mg/mL solution. Group 4: 1 mg Example 7 was dissolved in 4.5 mL HP-β-CD and 7 µL 1 M HCI (MP Biomedicals, Cat. 194055, lot 3956H) with alternating sonication and vortexing. The pH was adjusted by addition of 5 µL 1 M NaOH and the volume brought up to 5 mL with 0.488 mL HP-β-CD to yield a 0.2 mg/mL solution. Group 5: 3 mg Example 7 was dissolved in 4.5 mL HP-β-CD and 20 µL 1 M HCI with alternating sonication and vortexing. The pH was adjusted by addition of 16 µL 1 M NaOH and the volume brought up to 5 mL with 0.464 mL HP-β-CD to yield a 0.6 mg/ mL solution. Group 6: 10 mg Example 7 was dissolved in 4.5 mL HP-β-CD and 66 µL 1 M HCI with alternating sonication and vortexing. The pH was adjusted by addition of 53 µL 1 M NaOH and the volume brought up to 5 mL with 0.381 mL HP-β-CD to yield a 2 mg/mL solution.
25.7 mg lipopolysaccharides (LPS) from E. coli strain 055:B5 (Sigma, Cat. L2880, lot 025M4040V) was dissolved in 2.57 mL sterile saline (Hospira, lot 56-836-FW) to prepare a 10 mg/mL solution.
The mice were numbered, weighed, and dosed orally at 10 mL/kg as in Table 5.
An hour later, the mice were anesthetized, a midline incision was made in the neck, the muscle layers separated by blunt dissection, and 2 mL/kg LPS (20 mg/kg) injected into the trachea (Groups 2-6). The incision was closed with wound clips and the mice returned to cages. Group 1 received 2 mL/kg saline.
Six hours after LPS/saline injection, the mice were anesthetized, the wound clips removed, the trachea was cannulated with a 23 G needle blunt, and the lungs lavaged eight times with 0.5 mL heparinized saline. The lavage was pooled, gently inverted, and a sample retained for white blood cell (WBC) counts and differential analysis. The remainder of the lavage was centrifuged, the supernatants dispensed to one aliquot in labelled Eppendorf tubes which were stored at -80° C. The carcasses were disposed of appropriately.
Day 14: The aliquot of lung lavage supernatant was equilibrated to room temperature, diluted 1:2 and assayed for TNFα by ELISA (R&D Systems, Cat. MTA00B, lot 332141).

[1] = 2 mg/kg oral, one hour pre-treatment (Group 4), did not reach statistical significance
[2] = 6 mg/kg oral, one hour pre-treatment (Group 5)
[3] = 20 mg/kg oral, one hour pre-treatment (Group 6)

CS(=O)(=O)N1CCN(c2ccc(-c3nc4ccncc4n3-c3ccc(F)cc3)cn2)CC1 [Example 7, 1-{5-[3-(4-Fluorophenyl)-3H-Imidazo[4,5-C]Pyridin-2-Yl]Pyridin-2-Yl}-4-Methanesulfonylpiperazine]
reduction in infiltrating inflammatory cells [1]: 3%
reduction in lavage TNFα content [1]: 10%
reduction in neutrophils in the lavage fluid [1]: 27%
reduction in neutrophils in the lavage fluid (6 mg/kg oral, one hour pre-treatment): 97%
reduction in infiltrating inflammatory cells [2]: 70%
reduction in lavage TNFα content [2]: 65%
reduction in neutrophils in the lavage fluid (20 mg/kg oral, one hour pre-treatment): 97%
reduction in infiltrating inflammatory cells [3]: 93%
reduction in lavage TNFα content [3]: 74%
effect of one hour oral pre-treatment on all measured parameters (2, 6, 20 mg/kg oral prior to LPS challenge, in words): significant dose-dependent reduction in all measured parameters
effect of oral pre-treatment on LPS-induced pulmonary Neutrophil infiltration (FIG. 1, in words): decreases neutrophil infiltration in lung tissue
effect of oral pre-treatment on LPS-induced pulmonary lavage TNFa content (FIG. 2, in words): decreases TNFa content in pulmonary lavage
average lavage TNFα (Group 4, 2 mg/kg oral 1 h before LPS, Mean SD): 337.00 pg/mL
Neutrophils (Group 4, 2 mg/kg oral 1 h before LPS, lung lavage 6 h after LPS, Mean SD): 583 204
average lavage TNFα (Group 5, 6 mg/kg oral 1 h before LPS, Mean SD): 132.90 pg/mL
average lavage TNFα (Group 6, 20 mg/kg oral 1 h before LPS, Mean SD): 98.87 pg/mL
